Reference: patent US20220202811A1, “TREATMENT FOR RETINOIC ACID RECEPTOR-RELATED ORPHAN RECEPTOR Ɣ (RORƔ)-DEPENDENT CANCERS” (The Regents of the University of California, priority 2019, published 2022)
“Also recorded” adds a separate entry of the source.

Assays:
[1] = test system: organoids derived from adenosquamous tumors; assay: adenosquamous tumor organoids (Msi2-Cre^ER/LSL-Myc); format: cell-based, mouse
Source text: A new Msi2-Cre^ER mouse model of aggressive pancreatic cancer was created, in which Cre is driven off of the Msi2 promoter and can be conditionally triggered by tamoxifen delivery. This Msi2-Cre^ER driver can be crossed into mice bearing distinct mutations such as Ras (leading to myeloproliferative neoplasia), p53, or Myc. When the Msi2-Cre^ER driver was crossed into an LSL-MyC^T58A model developed by Dr. Robert Wechsler-Reya at SBP/Rady, La Jolla, Calif. (Mollaoglu et al., 2017) (FIG. 79), it produced multiple cancer types including small cell lung cancer, choroid plexus tumors, and early stage kidney tumors.

KP^f/fC tumors = details: chimeric wild type versus RORγ recipient mice
[2] = test system: non-germline KRAS/p53 organoids; assay: non-germline KRAS/p53 organoid assay; format: cell-based, mouse; details: 3 μM, 6 μM, 9 μM JTE-151; 4 days
Procedure: First, pharmacologic blockade of RORγ using JTE-151 was tested on pancreatic cell organoids as described above. Pancreatic cancer cells derived from two genetically engineered mouse models (GEMMS) were used for the organoid studies (FIGS. 47, 48). […] Then, electroporation was used to promote incorporation of the DNA into the pancreatic cells.
About 4,000 organoids from each of the non-germline and germline mouse models were plated as single cells in multi-well plates, as described above, and treated with JTE-151 for 4 days (FIG. 48). Organoid number and size were analyzed after treatment. […] In the quantification, different doses of JTE-151 were plotted along the horizontal axis, and the volume of organoids was expressed as relative to control along the vertical axis. […] Organoid volume was then analyzed. Different doses of JTE-151 were plotted along the horizontal axis, and the vertical axis represents relative organoid volume to control.

| SMILES | sensitivity of organoids [1] | impact on tumor growth, cellularity, and stem cell content (KP^f/fC tumors) | organoid growth [2] |
| --- | --- | --- | --- |
| OC(c1ccc(-c2ccc(CN3CCN(Cc4ccncc4)CC3)cc2)c(F)c1)(C(F)(F)F)C(F)(F)F [SR2211] | sensitive | equivalent |  |
| Cc1ccc(NC(=O)C[C@H](CCC(=O)O)c2noc([C@H]3C[C@@H](CC(C)(C)C)C3)c2C2CC2)c(Cl)c1 [JTE-151, (4S)-6-[(2-chloro-4-methylphenyl)amino]-4-{4-cyclopropyl-5-[cis-3-(2,2-dimethylpropyl)cyclobutyl]isoxazol-3-yl}-6-oxohexanoic acid] |  |  | visibly and significantly impaired; also recorded: inhibited |
